Earlier results, collected in US20090074668A1, “Vldlr-/- mouse models and related methods” (priority 2007, published 2009).

Test system: VEGF
Conditions: intraocular administration; in vitro and in vivo

CC1(C)O[C@@H]2C[C@H]3[C@@H]4CCC5=CC(=O)C=C[C@]5(C)[C@@]4(F)[C@@H](O)C[C@]3(C)[C@]2(C(=O)CO)O1 [Kenalog]
effect on VEGF levels: reduce VEGF levels
